According to patent EP0951284B1, “[…] DERIVATIVES” (priority 1996, dated 1998):
Where a name gives a salt, the structure may show the parent alone.

How the values were obtained:
[1] = target: T1, Human erythrocyte acetylcholinesterase (Homo sapiens, UniProt P22303); test: In vitro measurement of acetylcholinesterase (AChE) inhibition (Ellman method); assay type: biochemical; settings: at time of peak activity, incubation 15 to 60 minutes at 37°C
T1 construct: Human erythrocyte acetylcholinesterase (type XIII, Sigma Israel); purchased Sigma Israel type XIII; host or cells: human erythrocytes
T1 sequence (P22303 32-617 isoform P22303-2 limits assumed): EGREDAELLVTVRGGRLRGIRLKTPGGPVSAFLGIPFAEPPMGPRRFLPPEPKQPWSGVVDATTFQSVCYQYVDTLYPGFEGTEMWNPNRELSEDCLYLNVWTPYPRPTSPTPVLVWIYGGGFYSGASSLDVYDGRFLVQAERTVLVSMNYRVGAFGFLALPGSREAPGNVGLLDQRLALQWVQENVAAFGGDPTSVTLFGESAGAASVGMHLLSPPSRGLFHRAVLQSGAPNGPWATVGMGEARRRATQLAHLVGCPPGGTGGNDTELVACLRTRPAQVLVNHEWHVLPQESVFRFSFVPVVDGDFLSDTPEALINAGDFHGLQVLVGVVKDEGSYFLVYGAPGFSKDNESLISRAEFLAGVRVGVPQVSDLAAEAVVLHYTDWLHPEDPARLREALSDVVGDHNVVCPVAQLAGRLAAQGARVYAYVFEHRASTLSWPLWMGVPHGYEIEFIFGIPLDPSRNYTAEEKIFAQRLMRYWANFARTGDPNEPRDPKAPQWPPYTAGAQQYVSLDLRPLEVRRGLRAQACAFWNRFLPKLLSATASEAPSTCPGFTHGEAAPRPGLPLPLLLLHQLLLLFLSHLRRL
Protocol: Human erythrocyte acetylcholinesterase (type XIII, Sigma Israel), was prepared in a stock solution of 1U/ml, containing Triton (1%) and bovine serum albumin (0.05%) in phosphate buffer (pH 8). The enzyme (0.05U) was incubated with 3-5 different concentrations of test compound (in triplicate) for periods of from 15 to 60 minutes at 37°C. […] The percentage inhibition of AChE by each concentration of drug is calculated by comparison with that of enzyme in the absence of drug.

[2] = Acute toxicity in mice (sub-cutaneous, lethality within 6 hours); settings: mouse, in vivo, sc; for selectivity ratio: LD50 divided by ED50 (acetylcholine esterase ex vivo), read-out: Therapeutic Ratio (LD/AC); for LD50 at 6 h: sub-cutaneous, mice, within 6 hours
Protocol: Drugs were administered sub-cutaneously in at least 3 doses, to a minimum of 10 mice per dose. […] Therapeutic Ratio was calculated as LD50 divided by ED50(acetylcholine esterase ex vivo).

MAO-B [3] = test: Inhibition of MAO activity ex vivo (brain tissue), PEA substrate; assay type: in vivo, mice; settings: mouse brain tissue
Protocol: Male Sabra mice, weighing 45-50g were injected with test compound solutions (prepared in 0.9% saline). Each dose was administered to two or three mice. The mice were sacrificed two hours after drug administration or at a time corresponding to the peak AChE inhibition time (see Table 6). The brain and liver were rapidly dissected and stored in appropriate vials on ice. The tissues were weighed, diluted to 1/20 in sucrose 0.3M and stored at -20°C before performance of the MAO assay described above. The results given in Table 6 relate to measurements made on brain tissue only.

mice = test: Survival time of mice in hypobaric hypoxic episode; assay type: in vivo
Source text: The model is based on that described in Nakanishi, M. et al. Life Sci. (1973) 13: 467; Oshiro, et al., J. Med. Chem. (1991) 34: 2004-2013; and US Patent 4,788,130.
A 12 liter desiccator (desiccator A) and a 2.5 liter desiccator (desiccator B) were separately connected to a vacuum pump. Desiccator B was disconnected and allowed to equilibrate with room air whilst desiccator A was evacuated to a pressure of 100mmHg. Four male ICR albino mice (22-28g) were placed in desiccator B. Desiccator B was then closed to room air and connected to desiccator A. The pressure inside desiccator B was monitored using a mercury manometer and at the point the pressure in desiccator B reached 200mmHg (usually within 14 seconds), the two desiccators were disconnected from the vacuum pump and the pump switched off. The survival time from the moment of induction of hypoxia to the time of cessation of respiration was recorded. for each mouse for a maximum of 15 minutes after which time room air was reintroduced to desiccator B. Survivors were monitored for signs of lethargy or vitality.
Effect of drug treatment was assessed as the percent of the survival time of the drug treated group with respect to the saline injected or vehicle injected control group. Control groups were run twice, before and after each experimental group and consisted of 8 mice in groups of 4 mice to ensure a constant residual volume of oxygen in all tests. The effect of each dose of test drug was determined in duplicate i.e. two groups of 4 mice.
Positive reference drugs were sodium pentobarbital at a dose of 40 mg/kg, and diazepam 10 mg/kg given 0.5h prior to hypoxia, physostigmine 0.2 and 0.4 mg/kg and neostigmine 0.2 mg/kg given sc 30 min before hypoxia. Methyl atropine 1 mg/kg was given sc. 10 min. before physostigmine.
The volume of injection was 0.2-0.3 mL per mouse (10 mL/kg). The initial dose was about one third of the reported LD50 for acetylcholine esterase inhibition. If no protection could be obtained, the dose was further increased to the nearest non-toxic dose. In case of protection, the dose was further reduced in an attempt to locate the "protective" dose range.

MAO-B [4] = target: T2, MAO-B (Rattus norvegicus, UniProt P19643); test: Inhibition of MAO activity in vitro, rat brain homogenate, PEA substrate; assay type: biochemical; set-up: The MAO enzyme source was a homogenate of rat brain in 0.3M sucrose; from tissue; host or cells: rat brain homogenate (600G supernatant); settings: PEA 50µM
T2 sequence (P19643 1-520): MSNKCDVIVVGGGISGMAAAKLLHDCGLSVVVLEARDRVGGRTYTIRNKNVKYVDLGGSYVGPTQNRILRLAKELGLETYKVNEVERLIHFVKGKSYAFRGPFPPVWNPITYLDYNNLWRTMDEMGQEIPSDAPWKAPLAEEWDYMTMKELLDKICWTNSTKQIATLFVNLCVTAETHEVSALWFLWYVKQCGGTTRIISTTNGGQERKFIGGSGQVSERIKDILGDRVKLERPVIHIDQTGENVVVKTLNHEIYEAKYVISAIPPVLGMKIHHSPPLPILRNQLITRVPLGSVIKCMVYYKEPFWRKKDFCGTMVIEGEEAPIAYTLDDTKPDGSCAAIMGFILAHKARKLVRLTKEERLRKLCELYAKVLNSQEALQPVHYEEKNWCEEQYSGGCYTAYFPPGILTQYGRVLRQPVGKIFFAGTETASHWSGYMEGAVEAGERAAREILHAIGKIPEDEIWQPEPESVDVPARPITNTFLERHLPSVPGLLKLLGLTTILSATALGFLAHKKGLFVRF
Protocol: The MAO enzyme source was a homogenate of rat brain in 0.3M sucrose, which was centrifuged at 600G for 15 minutes. The supernatant was diluted appropriately in 0.05M phosphate buffer, and pre-incubated with serial dilutions of test compounds for 20 minutes at 37°C. ^14C-Labeled substrates (2-phenylethylamine, hereinafter PEA; 5-hydroxytryptamine, hereinafter 5-HT) were then added, and the incubation continued for a further 20 minutes (PEA), or 30-45 minutes (5-HT). Substrate concentrations used were 50µM (PEA) and 1mM (5-HT). In the case of PEA, enzyme concentration was chosen so that not more than 10% of the substrate was metabolized during the course of the reaction. The deaminated products were extracted into toluene-ethyl acetate (1:1, v/v) containing 0.6% (w/v) 2,5-diphenyloxazole prior to determination by liquid scintillation counting. Radioactivity in the eluate indicates the production of neutral and acidic metabolites formed as a result of MAO activity. Activity of MAO in the sample was expressed as a percentage of control activity in the absence of inhibitors after subtraction of appropriate blank values The activity determined using PEA as substrate is referred to as MAO-B, and that determined using 5-HT as MAO-A.

[5] = 4.1 mg/kg sc, 60 min before hypoxia
[6] = 6.2 mg/kg sc, 60 min before hypoxia

## C#CCNCCc1cccc(OC(=O)N(C)C)c1 [Compound 11]
[1]
  IC50: 820 nM
[2]
  selectivity ratio: 13.8
  LD50 at 6 h: 44.2 µmol/kg
MAO-B [3]
  MAO-B Inhibition Ex vivo ED50: >>30 µmoles/kg
mice; 2 mg/kg sc, 30 min before hypoxia
  Protection (% of control): 302±212 % of control
mice; 2 mg/kg sc, 60 min before hypoxia
  Protection (% of control): 128±40 % of control
mice; 4.1 mg/kg sc, 30 min before hypoxia
  Protection (% of control): 501±201 % of control
mice; [5]
  Protection (% of control): 416±211 % of control
mice; [6]
  Protection (% of control): 331±168 % of control
MAO-B [4]
  IC50: 25000 nM

## C#CCN(C)CCc1cccc(OC(=O)N(C)C)c1 [Compound 12]
[1]
  IC50: 880 nM
[2]
  selectivity ratio: 11.5
  LD50 at 6 h: 46 µmol/kg
MAO-B [3]
  MAO-B Inhibition Ex vivo ED50: 21 µmol/kg
mice; 4.5 mg/kg sc, 60 min before hypoxia
  Protection (% of control): 97±36 % of control
mice; 7 mg/kg sc, 60 min before hypoxia
  Protection (% of control): 217±120 % of control
MAO-B [4]
  IC50: 2500 nM

## C#CCNC(C)Cc1cccc(OC(=O)N(C)C)c1 (stereo not drawn) [Compound 16]
[1]
  IC50: 370 nM
[2]
  selectivity ratio: 18.3
  LD50 at 6 h: 42 µmol/kg
MAO-B [3]
  MAO-B Inhibition Ex vivo ED50: >20 µmol/kg
mice; [5]
  Protection (% of control): 335±202 % of control
mice; [6]
  Protection (% of control): 324±155 % of control
mice; 15 mg/kg sc, 60 min before hypoxia
  Protection (% of control): toxic
MAO-B [4]
  IC50: 6000 nM

## C#CCNC(C)Cc1cccc(OC(=O)N(C)CC)c1 (stereo not drawn) [Compound 17, 3-(N-Me,N-Etcarbamyloxy)α-methyl, N-propargyl phenethylamine.HCl]
[1]
  IC50: 36000 nM
[2]
  selectivity ratio: 9.4
  LD50 at 6 h: 600 µmol/kg
MAO-B [3]
  MAO-B Inhibition Ex vivo ED50: 40 µmol/kg
mice; 31 mg/kg sc, 60 min before hypoxia
  Protection (% of control): 149±44 % of control
mice; 62 mg/kg sc, 60 min before hypoxia
  Protection (% of control): 419±122 % of control
mice; 94 mg/kg sc, 60 min before hypoxia
  Protection (% of control): 281±158 % of control
MAO-B [4]
  IC50: 2000 nM
